Measurements published in US7491733B2, “Bicyclic guanidine derivatives and therapeutic uses thereof” (Merck Patent GmbH, priority 2001, dated 2009).
Counter-ions that a name gives are not always drawn. Like-named read-outs stand apart in the source and are kept apart here.

Experiments:
Nostz Rats = assay: Oral antidiabetic activity in Nostz rats (non-insulin-dependent diabetes induced by neonatal steptozotocin); change in glycaemia; format: in vivo; details: Rattus norvegicus, blood sample two hours after the final administration, diabetic rats; for change in vivo at 20 mg/kg: 20 mg/kg/day; for change in vivo at 200 mg/kg: 200 mg/kg/day
Method: Study of the Antidiabetic Activity in Nostz Rats
The oral antidiabetic activity of the compounds of the formula (I) was determined on an experimental model of non-insulin-dependent diabetes, induced in the rats with steptozotocin.
The model of non-insulin-dependent diabetes is obtained in the rats by means of a neonatal injection (on the day of birth) of steptozotocin.
The diabetic rats used are eight weeks old. The animals are housed, from the day of birth to the day of the experiment, in an animal house at a regulated temperature of 21 to 22° C. and subjected to a fixed cycle of light (from 7 a.m. to 7 p.m.) and darkness (from 7 p.m. to 7 a.m.). Their food consisted of a maintenance diet, and water and food were given “ad libitum”, with the exception of fasting two hours before the tests, during which period the food is removed (post-absorptive state).
The rats are treated orally for one (D1) or four (D4) days with the test product. Two hours after the final administration of the product and 30 minutes after the animals have been anaesthetised with pentobarbital sodium (Nembutal®), a 300 μl blood sample is taken from the end of the tail.
By way of example, results obtained are collated in Table 2.

[1] = 24 h, one day of treatment (D1), read-out: percentage change in the glycaemia on D1 relative to D0
[2] = 96 h, four days of treatment (D4), read-out: percentage change in the glycaemia on D4 relative to D0

| Compound | melting point | change in vivo at 20 mg/kg (Nostz Rats; [1]) | change in vivo at 200 mg/kg (Nostz Rats; [1]) | change in vivo at 20 mg/kg (Nostz Rats; [2]) | change in vivo at 200 mg/kg (Nostz Rats; [2]) |
| --- | --- | --- | --- | --- | --- |
| CN(Cc1nc2ccccc2s1)C(=N)N (as salt: hydrochloride) [Compound 1, 2-(aminoiminomethyl(methylamino)methyl)-benzothiazole hydrochloride] | 203 to 205 °C |  |  |  |  |
| CN(Cc1nc2ccccc2s1)C(=N)N [Compound 1, 2-(aminoiminomethyl(methylamino)methyl)-benzothiazole hydrochloride] |  | 5% | -9% | -4% | -23% |
| N=C(N)NCc1nc2ccccc2[nH]1 [Compound 2, 2-(aminoiminomethylamino)methylbenzimidazole hydrochloride] |  | -17% | -10% | -13% | -25% |
| N=C(N)NCC1Cc2ccccc2C1 [Compound 3, 2-(aminoiminomethylamino)methylindane sulfate] |  | 2% | -14% | -10% | -29% |
| N=C(N)NCc1nc2ccccc2s1 [Compound 5] |  | -18% | -30% | -3% | -26% |
| CN(Cc1nc2ccccc2[nH]1)C(=N)N [Compound 6] |  | 3% | -6% | 0% | -16% |
| N=C(N)NCc1cc2ccccc2[nH]1 [Compound 7] |  | -5% | -19% | -9% | -28% |
| N=C(N)NCC1Cc2ccccc2N1 (centres unmarked) [Compound 8] |  | -7% | -10% | -12% | -9% |
| COc1cc2c(cc1OC)CC(CNC(=N)N)C2 [Compound 11] |  | -1% | -8% | -8% | -14% |
| COc1ccc2c(c1)cc(CNC(=N)N)n2C [Compound 12] |  |  | -22% |  | -26% |
| COc1ccc2[nH]c(CNC(=N)N)cc2c1 [Compound 13] |  |  | -16% |  | -26% |
| N=C(N)NCc1cc2ccccc2o1 [Compound 15] |  | -23% | -29% | -28% | -31% |

Second part, led by results:

| melting point | Compound | change in vivo at 20 mg/kg (Nostz Rats; [1]) | change in vivo at 200 mg/kg (Nostz Rats; [1]) | change in vivo at 20 mg/kg (Nostz Rats; [2]) | change in vivo at 200 mg/kg (Nostz Rats; [2]) |
| --- | --- | --- | --- | --- | --- |
| 189 to 191 °C | N=C(N)NCC1Cc2ccccc2N1 (centres unmarked) (as salt: hemisulfate) [Compound 8] |  |  |  |  |
| 171 to 173 °C | N=C(N)NCc1nc2ccccc2[nH]1 (as salt: hydrochloride) [Compound 2, 2-(aminoiminomethylamino)methylbenzimidazole hydrochloride] |  |  |  |  |
| 196 to 198 °C | N=C(N)NCc1nc2ccccc2s1 (as salt: hydrochloride) [Compound 5] |  |  |  |  |
| 253 to 255 °C | CN(Cc1nc2ccccc2[nH]1)C(=N)N (as salt: hydrochloride) [Compound 6] |  |  |  |  |
| 181 to 183 °C | Cn1c(CNC(=N)N)cc2cc(F)ccc21 (as salt: hydrochloride) [Compound 14] |  |  |  |  |
| 209 to 211 °C | CN(CC1=Cc2ccccc2C1)C(=N)N (as salt: hydrochloride) [Compound 16] |  |  |  |  |
| 231 to 233 °C | N=C(N)NCC1Cc2ccccc2C1 (as salt: sulfate) [Compound 3, 2-(aminoiminomethylamino)methylindane sulfate] |  |  |  |  |
| 191 to 193 °C | COc1cc2c(cc1OC)CC(CNC(=N)N)C2 (as salt: sulfate) [Compound 11] |  |  |  |  |
| 233 to 235 °C | COc1ccc2c(c1)cc(CNC(=N)N)n2C (as salt: sulfate) [Compound 12] |  |  |  |  |
| 213 to 215 °C | COc1ccc2[nH]c(CNC(=N)N)cc2c1 (as salt: sulfate) [Compound 13] |  |  |  |  |
| 244 to 247 °C | N=C(N)NCc1cc2ccccc2o1 (as salt: sulfate) [Compound 15] |  |  |  |  |
| > 250 °C | N=C(N)NCC1Cc2cc(F)c(F)cc2C1 (as salt: sulfate) [Compound 17] |  |  |  |  |
| 139 to 141 °C | N=C(N)NCC1Cc2ccccc2O1 (centres unmarked) [Compound 9] |  |  |  |  |
| 187 to 189 °C | N=C(N)NCC1Cc2ccccc2S1 (centres unmarked) [Compound 10] | -3% | -21% | -5% | -25% |
